{"source": "patent US20150126546A1", "about": "“Treatment of Cognitive Disorders with Certain Alpha-7 Nicotinic Acid Receptors in Combination with Acetylcholinesterase Inhibitors” (Forum Pharmaceuticals, Inc., priority 2009, published 2015)", "assay_type_in_all_cases": "in vivo", "key": {"[1]": {"system": "5-month-old male Wistar rats", "assay": "Object recognition task after scopolamine treatment", "details": "for d2 difference from zero (one-sample t-tests) / effect on scopolamine-induced object memory dysfunction (comparison with scopolamine alone): present study; for d2 difference from zero (one-sample t-tests) / effect on scopolamine-induced object memory dysfunction (comparison with scopolamine alone) / Mean values (±SEM) of the indices of discrimination (d2) between the new and familiar objects: EVP-6124 0.03 mg/kg p.o., donepezil 0.1 mg/kg p.o., scopolamine 0.1 mg/kg i.p., 1 h delay; for Mean values (±SEM) of the indices of discrimination (d2) between the new and familiar objects: all 30 min before T1, n = 23", "text": "The object recognition task allows the assessment of consolidation of (object) information into memory (Ennaceur and Delacour, 1988; Prickaerts et al., 1997). In this task a rat is given two trials. In the first trial the rat is put into an arena in which two identical objects are placed. Usually, a rate will inspect the two objects for a certain amount of time. After a certain delay, the rat is given a second trial. In this trial the rat is again placed in the same arena but one of the objects has been replaced by a novel object. Similar to the first trial the rat again explores the two objects. The amount of time exploring each object is recorded in order to determine whether the rat spent a different amount of time exploring the two objects. On basis of this scoring the memory performance can be determined.\nAll drugs were given 30 minutes before the first trial.\nAll experimental procedures were approved by the local ethical committee of the Maastricht University for animal experiments and met governmental guidelines. Twenty-four 5-month-old male Wistar rats (Harlan, The Netherlands) were used (average body weights: 465 g). […] The animals were individually housed in standard type 3 Makrolon cages on sawdust bedding in an air-conditioned room (about 20° C.). They were kept under a 12/12-hour light/dark cycle (lights on from 19.00 to 7.00 h) and had free access to food and water. Rats were housed in the same room as where the animals were tested. A radio, which was playing softly, provided background noise in the room. All testing was done between 9.00 and maximally 18.00 h.\nEVP-6124 was dissolved in H2O. The solution was prepared daily and tested at a dose of 0.03 mg/kg p.o. (injection volume 2 ml/kg). […] Donepezil was dissolved in saline. The solution was prepared daily and tested at a dose of 0.1 mg/kg p.o. (injection volume 2 ml/kg). Administration was always 30 min before trial 1 immediately after (R)-7-chloro-N-(quinuclidin-3-yl)benzo[b]thiophene-2-carboxamide.\nSubsequently donepezil, (R)-7-chloro-N-(quinuclidin-3-yl)benzo[b]thiophene-2-carboxamide and the combination of both were tested (n=8 per condition per day of testing). All rats were treated once with each dose condition. […] The experimentator was unaware of the condition/drugs being tested.\nThe object recognition test was performed as described elsewhere (Ennaceur and Delacour, 1988). The apparatus consisted of a circular arena, 83 cm in diameter. Half of the 40 cm high wall was made of gray polyvinyl chloride, the other half of transparent polyvinyl chloride. The light intensity was equal in the different parts of the apparatus. Two objects were placed in a symmetrical position about 10 cm away from the gray wall. Each object was available in triplicate. The objects were: 1) a cone consisting of a gray polyvinyl chloride base (maximal diameter 18 cm) with a collar on top made of brass (total height 16 cm), 2) a standard 1 l brown transparent glass bottle (diameter 10 cm, height 22 cm) filled with water, 3) a massive metal cube (10.0×5.0×7.5 cm) with two holes (diameter 1.9 cm), and 4) a massive aluminum cube with a tapering top (13.0×8.0×8.0 cm). A rat could not displace the objects. Fluorescent red tubes and a light bulb provided a constant illumination of about 20 lux on the floor of the apparatus.\nA testing session comprised two trials. The duration of each trial was 3 min. During the first trial (T1) the apparatus contained two identical objects (samples). A rat was always placed in the apparatus facing the wall at the middle of the front (transparent) segment. After the first exploration period the rat was put back in its home cage."}, "[2]": {"system": "5-month-old male Wistar rats", "assay": "Object recognition task after scopolamine treatment", "details": "previous study; for effect on object memory deficit induced by scopolamine: scopolamine 0.1 mg/kg i.p."}, "[3]": {"system": "mild to moderate AD patients", "details": "0.3 or 1.0 mg/d for 28 days, in addition to donepezil or rivastigmine; domains of non-verbal learning, memory, executive function", "method": "The safety and efficacy of (R)-7-chloro-N-(quinuclidin-3-yl)benzo[b]thiophene-2-carboxamide HCl salt was assessed in a Phase 1b study of 48 mild to moderate AD patients 60-80 years of age, on stable donepezil (5 or 10 mg/day) or rivastigmine (6-12 mg/day administered as a twice daily dose, i.e., 3 or 6 mg per dose).\nPatients were dosed with placebo or two different doses of (R)-7-chloro-N-(quinuclidin-3-yl)benzo[b]thiophene-2-carboxamide (0.3 or 1.0 mg/d) for 28 days. Safety was evaluated by adverse events, ECG, and clinical laboratory measures. Cognitive effects were measured by CogState computerized cognitive testing and a subset of NTB scales (category fluency, Trails A and B)."}}, "note": "Structures can show the parent of a compound that is named as a salt."}
{"compound": "O=C(N[C@H]1CN2CCC1CC2)c1cc2cccc(Cl)c2s1", "note": "[EVP-6124, (R)-7-chloro-N-(quinuclidin-3-yl)benzo[b]thiophene-2-carboxamide]", "values": [{"measurement": "d2 difference from zero (one-sample t-tests)", "setting": "[1]", "value": "not different from zero"}, {"measurement": "effect on scopolamine-induced object memory dysfunction (comparison with scopolamine alone)", "setting": "[1]", "value": "did not improve the memory"}, {"measurement": "Mean values (±SEM) of the indices of discrimination (d2) between the new and familiar objects", "setting": "[1]", "value": "0.00 (0.05)"}, {"measurement": "effect on object memory deficit induced by scopolamine", "setting": "[2]; 0.03 mg/kg p.o.", "value": "had no effect"}, {"measurement": "effect on object memory deficit induced by scopolamine", "setting": "[2]; 0.3 mg/kg p.o.", "value": "completely attenuated"}, {"measurement": "cognitive function", "setting": "[3]", "value": "showed an increase in cognitive function"}]}
{"compound": "COc1cc2c(cc1OC)C(=O)C(CC1CCN(Cc3ccccc3)CC1)C2", "note": "(centres unmarked) [donepezil, 1-benyzl-4-[(5,6-dimethoxy-1-indanon)-2-yl]methylpiperidine monohydrochloride]", "values": [{"measurement": "d2 difference from zero (one-sample t-tests)", "setting": "[1]", "value": "not different from zero"}, {"measurement": "effect on scopolamine-induced object memory dysfunction (comparison with scopolamine alone)", "setting": "[1]", "value": "did not improve the memory"}, {"measurement": "Mean values (±SEM) of the indices of discrimination (d2) between the new and familiar objects", "setting": "[1]", "value": "−0.02 (0.05)"}, {"measurement": "effect on scopolamine-induced object memory deficit", "setting": "[2]; 0.1 mg/kg donepezil", "value": "had no effect"}, {"measurement": "effect on scopolamine-induced object memory deficit", "setting": "[2]; 0.3 mg/kg donepezil p.o.", "value": "attenuated"}]}
{"compound": "CN1[C@@H]2C[C@@H](OC(=O)[C@H](CO)c3ccccc3)C[C@H]1[C@@H]1O[C@@H]12", "note": "[scopolamine]", "values": [{"measurement": "d2 difference from zero (one-sample t-tests)", "setting": "[1]", "value": "no difference"}, {"measurement": "memory of the familiar object after 1 h delay interval", "setting": "[1]; scopolamine 0.1 mg/kg i.p. alone", "value": "no more memory of the familiar object was found"}, {"measurement": "Mean values (±SEM) of the indices of discrimination (d2) between the new and familiar objects", "setting": "[1]", "value": "0.02 (0.07)"}]}
